# PubChem BioAssay AID449745 (Broad Institute, 2010)
# Inconclusive results are not listed. Activity calls are given as the source filed them. The rule behind the calls is not given here.
# Target: Zinc finger protein mex-5 (Caenorhabditis elegans) (UniProt Q9XUB2)
# Test: MEX-5 RNA-binding inhibition confirmation – biochemical, C. elegans, fluorescence polarization, dose retest (AID 449745);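 note: potency is for blocking Mex-5 binding to labeled TCR2 RNA like unlabeled competitor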
# Details: Mex-5 / TCR-2 RNA binding
# Chain of Zinc finger protein mex-5 (Caenorhabditis elegans) (Q9XUB2 whole entry, looked up): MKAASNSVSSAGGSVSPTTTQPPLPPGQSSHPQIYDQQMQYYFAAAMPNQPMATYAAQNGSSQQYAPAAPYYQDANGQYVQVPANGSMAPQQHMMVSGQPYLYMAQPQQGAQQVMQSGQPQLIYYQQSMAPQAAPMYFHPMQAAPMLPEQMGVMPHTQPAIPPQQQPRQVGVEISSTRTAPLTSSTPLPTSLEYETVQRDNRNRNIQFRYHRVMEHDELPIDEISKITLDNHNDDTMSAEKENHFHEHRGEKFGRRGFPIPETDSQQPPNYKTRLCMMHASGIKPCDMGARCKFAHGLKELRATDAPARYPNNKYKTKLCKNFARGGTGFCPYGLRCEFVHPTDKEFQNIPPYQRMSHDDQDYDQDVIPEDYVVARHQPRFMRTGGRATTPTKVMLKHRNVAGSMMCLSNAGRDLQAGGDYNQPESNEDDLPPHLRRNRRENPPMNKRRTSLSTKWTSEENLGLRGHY
row,Compound,AC50
1,O=c1[nH]c(-[n+]2ccccc2)c(/C=N/NC([S-])=Nc2ccccc2)s1,15.1 µM
2,O=C1NC(=O)/C(=C\c2ccc(O)cc2O)S1,11.5 µM
3,O=C1c2cccc3cccc(c23)C(=O)C1(O)O,15.6 µM
4,Nc1nnc(CC(=O)N/N=C/c2cc([N+](=O)[O-])cc(Br)c2O)s1,2.69 µM
5,CCc1nnc(NC(=O)CCN2C(=O)/C(=C/c3cc(OC)c(OC)c(OC)c3)SC2=S)s1,> 38 µM (inactive)
6,Oc1ccc(N=Nc2nccs2)c(O)c1,38.3 µM
7,CCN1CCc2c(sc(N)c2C(N)=O)C1,37.4 µM
8,O=C(N/N=C/c1c(O)n(Cc2ccccc2)c(=O)[nH]c1=O)c1ccccc1O,10.5 µM
9,Cc1nn2c(N)csc2nc1=O,30 µM
10,CC(C)CN1CCN(Cc2cccc3ncccc23)CC1CCO (stereo not drawn),> 38 µM (inactive)
11,CC1=C(C#N)c2nc(N)c(C#N)c(C)c2/C1=C\c1ccc(-c2ccccc2C(=O)O)o1,17.9 µM
12,Cc1ccc(C2C(C(=O)c3cccs3)=C(O)C(=O)N2c2nnc(C)s2)cc1 (stereo not drawn),2.43 µM
13,CC(C)(C)C1CC=C2C(C#N)=C(N)C(C#N)(C#N)C(c3cccs3)C2C1 (stereo not drawn),> 38 µM (inactive)
14,COc1ccc(CN2C(=O)NC(=O)/C(=C\c3ccco3)C2=O)cc1,38.7 µM
15,CN(C)[C@@H]1C(=O)C(C(N)=O)=C(O)[C@@]2(O)C(=O)C3=C(O)c4c(O)cccc4[C@@](C)(O)[C@H]3[C@H](O)[C@@H]12,12 µM
16,N#CC(C#N)=NNc1ccc(S(N)(=O)=O)cc1,7.56 µM
17,Cc1cc2ccccc2n1CCNC(=O)c1ccc(Br)o1,> 38 µM (inactive)
18,O=C(CN1C(=O)/C(=C/c2ccco2)SC1=S)Nc1ccc(C(=O)O)c(O)c1,24.5 µM
19,O=C(CSc1ncn[nH]1)Nc1c(Br)cc([N+](=O)[O-])cc1Br,14 µM
20,O=c1[nH]n2c(=O)c3c([nH]c2c1N=Nc1ccccc1)CCC3,< 0.3 µM
21,COc1ccc(N(C(=O)CCl)C(C)(C(=O)Nc2c(C)cccc2C)c2ccccn2)cc1 (stereo not drawn),> 38 µM (inactive)
22,COC/C=C/C1=CC2=CC(=O)C(C)(OC(=O)c3cnc4ccccc4n3)C(=O)C2=CO1 (stereo not drawn),17.4 µM
23,COc1cccc(OCC(=O)NNC(=O)c2cnccn2)c1,0.315 µM
24,CC(=O)Nc1ccc(N2C(=O)c3cccc4c(O)ccc(c34)C2=O)cc1,3.81 µM
25,CCOC(=O)/C=c1\s/c(=C\c2ccc3cc(OC)ccc3c2)c(=O)n1CC(=O)NCc1ccc2c(c1)OCO2,> 38 µM (inactive)
26,Cc1cccc(C)c1NC(=O)/C(C#N)=C/c1ccc(-c2ccc(C(=O)O)cc2)o1,> 38 µM (inactive)

row,Compound,AC50
1,Cc1ccc(N2C(=O)NC(=O)/C(=C\c3ccc([N+](=O)[O-])o3)C2=O)cc1,6.08 µM
2,Cc1cc[n+](-c2[nH]c(=O)sc2/C=N/NC([S-])=Nc2ccccc2)cc1,4.83 µM
3,Cc1c(N=NC2=C(O)CCCC2=O)c(=O)n(-c2ccccc2)n1C,> 38 µM (inactive)
4,Cc1ccnc(N2C(=O)c3cccc4c([N+](=O)[O-])ccc(c34)C2=O)c1,14.8 µM
5,CC(=O)Nc1ccc(S(=O)(=O)NNC(=O)C(=O)NNc2ccccn2)cc1,0.621 µM
6,Cc1cc(O)c(-c2cc(O)c(C)cc2O)cc1O,6.21 µM
7,CC1C(=O)NN=C1C(=O)N/N=C\c1ccc(O)cc1O (stereo not drawn),10.2 µM
8,O=C1C(Cl)=C(NC(=O)c2ccccc2)C(=O)C(Cl)=C1NC(=O)c1ccccc1,< 0.3 µM
9,COc1ncnc2c1N=C1CC(C)(C)CC(N)=C1S2,19.6 µM
10,O=C(O)c1ccc(Cl)c2c1C1C=CCC1C(c1ccccn1)N2 (stereo not drawn),29 µM
11,CC(C(=O)Nc1ccc(C(=O)O)c(O)c1)N1C(=O)/C(=C\c2ccco2)SC1=S (stereo not drawn),19 µM
12,N#CC1=C(N)N2C(=C(C#N)C1c1ccccc1)Sc1ccccc12 (stereo not drawn),5.23 µM
13,Cn1nc([N+](=O)[O-])c(C(C#N)c2nc3ccccc3n2C)c(Cl)c1=O (stereo not drawn),22.9 µM
14,Nc1cc2c3c(cccc3c1)C(=O)N(CCN1CCCC1)C2=O,16 µM
15,COc1cc(OC)c(OC)cc1/C=C1/Cc2ccccc2C1=O,8.04 µM
16,N#C/C(=C\c1cccc([N+](=O)[O-])c1)c1nnc2n1CCCCC2,> 38 µM (inactive)
17,COc1ccccc1-n1c(C)nc2cc(C(=O)NCc3ccc4c(c3)OCO4)ccc21,> 38 µM (inactive)
18,N#C/C(=C\c1cccs1)C(=O)Nc1ccccn1,32.6 µM
19,CN1CCN(c2ccc([N+](=O)[O-])c3no[n+]([O-])c23)CC1,33.4 µM
20,O=C(CN1C(=O)/C(=C/c2cccc(Br)c2)SC1=S)NC1=NCCS1,> 38 µM (inactive)
21,CCOC(=O)C1CCN(c2nc3ccccc3nc2C(C#N)C(=O)OC(C)C)CC1 (stereo not drawn),> 38 µM (inactive)
22,CCc1ccc(N2C(=O)NC(=O)/C(=C/c3cccn3CCOc3ccc(C(C)CC)cc3)C2=O)cc1 (stereo not drawn),> 38 µM (inactive)
23,CN1C(=O)/C(=C/c2cn(CC(=O)N3CCCCC3)c3ccccc23)c2ccccc21,> 38 µM (inactive)
24,NC(=O)c1c(NC(=O)C2COc3ccccc3O2)sc2c1CCN(Cc1ccccc1)C2 (stereo not drawn),> 38 µM (inactive)
25,Oc1[nH]c2ccccc2c1N=NC(=S)N1CCOCC1,6.32 µM
26,Nc1ccc(N(CCO)CCO)cc1,> 38 µM (inactive)

row,Compound,AC50
1,Nc1c(C(=O)C2CC2)sc2nc(-c3cccs3)cc(C(F)(F)F)c12,> 38 µM (inactive)
2,CCN1C/C(=C/c2ccc(OC)c(O)c2)C(=O)/C(=C/c2ccc(OC)c(O)c2)C1,> 38 µM (inactive)
3,COc1ccc(Cn2c3ccc(OC)cc3c3nc4ccccc4nc32)cc1,22.9 µM
4,N#CC1(C#N)C(c2ccccc2)OC23CCCCC2C1(C#N)C(=N)O3 (stereo not drawn),> 38 µM (inactive)
5,C[n+]1c2ccccc2nc2ccc(NCCO)cc21,30.6 µM
6,CN(C)C1C(=O)C(C(N)=O)=C(O)C2(O)C(=O)C3=C(O)c4c(O)cccc4C(C)(O)C3CC12 (stereo not drawn),> 38 µM (inactive)
7,Cc1cc(C(=O)NNC(=O)CCCCC(=O)NNC(=O)c2cc(C)[nH]n2)n[nH]1,< 0.3 µM
8,O=c1[nH]c(=O)n(Cc2ccccc2)c(O)c1/C=C1\C=Nc2ccccc21,29.8 µM
9,N=c1c(C(=O)NCC2CCCO2)cc2c(=O)n3ccccc3nc2n1Cc1ccc(Cl)cc1 (stereo not drawn),> 38 µM (inactive)
10,Cc1cc2c(n1-c1ccc(C(=O)O)cc1)CCCCC2,9.57 µM
11,Cn1c(O)c(/C=N/NC(=O)c2cc3ccccc3cc2O)c2ccccc21,5.01 µM
12,COc1cccc(/C(O)=C/c2nc3ccc(C(=O)NCCc4ccc(Cl)cc4)cc3[nH]c2=O)c1,23.3 µM
13,Cc1cccc(CS(=O)(=O)c2nnc([C@H](Cc3ccccc3)NC(=O)OC(C)(C)C)o2)c1,> 38 µM (inactive)
14,O=C1CS/C(=N\NC(=O)c2ccccc2)N1,12 µM
15,CN1CCN(c2nc(-c3ccccc3)nc(-c3ccccc3)c2C#N)CC1,> 38 µM (inactive)
16,CCn1c(SCc2nc3sc(C(=O)O)c(C)c3c(=O)[nH]2)nc2ccccc21,13 µM
17,CCOC(=O)c1c(-c2ccc(C)o2)csc1NC(=S)NC(=O)c1cccs1,> 38 µM (inactive)
18,COc1ccc2cc(N=Cc3nc(-c4ccc(C)cc4)oc3O)cnc2c1,> 38 µM (inactive)
19,CC1=Nc2cccc3cccc(c23)N1C,> 38 µM (inactive)
20,O=c1cc[nH]c2c1ccc1c(=O)cc[nH]c12,25 µM
21,CCOc1ccc2nc(N3CCCN(C(=O)Nc4ccccc4C)CC3)c(C#N)cc2c1,22.8 µM
22,O=C1c2cccc3c(N4CCCCC4)ccc(c23)C(=O)N1c1ccccc1O,28.7 µM
23,CCOc1ccc(/C=C/C(=O)c2c(O)c3ccccc3oc2=O)cc1,> 38 µM (inactive)
24,O=C(N/N=C/C1C(=O)NC(=S)N(c2ccccc2)C1=O)c1cc(Br)c(O)c(Br)c1 (stereo not drawn),13 µM
25,O=C(O)/C=C/C(=O)NNc1ncnc2ccccc12,22.2 µM
26,O=C1OC(/C(=C\Nc2cc(Cl)ccc2O)[N+](=O)[O-])c2ccccc21 (stereo not drawn),12.4 µM

row,Compound,AC50
1,COc1cc([N+](=O)[O-])ccc1N/C=C/C(=O)c1cccs1,> 38 µM (inactive)
2,Oc1sc(C=Nc2ccc(F)cc2)c2ccccc12,22.2 µM
3,Cc1ccc(-c2cc(C(=O)O)c3cc(Br)ccc3n2)o1,> 38 µM (inactive)
4,CN1CC=C2C(C#N)=C(N)C(C#N)(C#N)[C@H](c3ccoc3)[C@H]2C1,32.4 µM
5,O=c1c2ccccc2nc(/C=C/c2ccc([N+](=O)[O-])o2)n1-c1ccc(O)cc1,> 38 µM (inactive)
6,CN(C)c1ccc(C(c2nnnn2CCOC(=O)Nc2ccc(Cl)cc2)N2CCOCC2)cc1 (stereo not drawn),> 38 µM (inactive)
7,Cc1ccc(N=C2NC(=O)/C(=C\c3ccc(C)s3)S2)cc1,> 38 µM (inactive)
8,CC(C)C[C@H](NC(=O)C1CC(=O)N(c2ccc3c(c2)OCO3)C1)C(=O)NC1CCCC1 (stereo partly drawn),29.2 µM
9,O=C(c1nc2ccc(Cl)cn2c1CN1CCC[C@H]1CO)N1CCCCCCC1,27.3 µM
10,CC1=NN2C(=N)/C(=C\c3ccc(SCc4ccccc4)o3)C(=O)N=C2S1,38 µM
11,COc1cc2c(cc1N/C=C(\C#N)c1nc(-c3ccc(F)cc3)cs1)oc1ccccc12,> 38 µM (inactive)
12,Cc1ccc(NC(=O)/C(C#N)=C(\N)C(Cl)(Cl)Cl)nc1,8.19 µM
13,Cc1ccc([C@@H]2C3COCC=C3C(C#N)=C(N)C2(C#N)C#N)o1 (stereo partly drawn),> 38 µM (inactive)
14,COc1ccc(OC)c(N2C(=O)NC(=O)/C(=C\c3ccc([N+](=O)[O-])s3)C2=O)c1,16.1 µM
15,CC(C)C1Nc2ccc(C(=O)O)cc2C2C=CCC21 (stereo not drawn),> 38 µM (inactive)
16,O=C1CCCC(O)=C1N=Nc1ccc(C(=O)O)cc1,32.9 µM
17,CCOC(=O)C1CCN(c2nc(N)c3c(N)nc(SCC(=O)O)cc3c2C#N)CC1,20.1 µM
18,Oc1ccc(Br)cc1C=Nc1cccn2cc(-c3ccccc3)nc12,> 38 µM (inactive)
19,Cc1ccccc1C(=O)N=c1ccn(-c2nc3ccccc3nc2NS(=O)(=O)c2ccccc2)cc1,> 38 µM (inactive)
20,O=C(NNc1ncnc2c1cnn2-c1ccc(F)cc1)c1ccco1,15.9 µM
21,CCc1cc(-c2n[nH]c(CCC(=O)O)c2-c2nc3ccccc3n2C)c(O)cc1O,12.1 µM
22,CCOC(=O)NC(=O)COC(=O)c1ccc(Sc2ncn[nH]2)c([N+](=O)[O-])c1,16.1 µM
23,Cc1cc(C)cc(N2C(=O)NC(=O)/C(=C/c3cccn3-c3ccc(Cl)cc3)C2=O)c1,> 38 µM (inactive)
24,O=C(N/N=C/c1sc(=O)[nH]c1-[n+]1ccccc1)c1ccccc1[O-],30.2 µM
25,O=C(N/N=C/c1oc(O)c2ccccc12)c1ccccc1O,> 38 µM (inactive)
